# Test results: US20170266156A1, “METHOD FOR PREVENTING CANCER BY USING PHTHALIDES” (National Sun Yat-sen University, priority 2016, published 2017)
# Biological target: hemoglobin (Hb) (Homo sapiens, UniProt P68871+P69905)
# Assay: oxygen equilibrium curves / P50 of hemoglobin treated with 2,3-BPG and phthalide compounds
# Type: biochemical
# Details: for effect of phthalide compound together with 2,3-BPG (lowering the oxygen affinity of hemoglobin): FIG. 1
# Text: The oxygen affinity of hemoglobin is commonly characterized by P50 value. The P50 value is the required oxygen partial pressure for hemoglobin to achieve 50% oxygen saturation.
# Chain of hemoglobin (Hb) (P69905 2-142 limits assumed): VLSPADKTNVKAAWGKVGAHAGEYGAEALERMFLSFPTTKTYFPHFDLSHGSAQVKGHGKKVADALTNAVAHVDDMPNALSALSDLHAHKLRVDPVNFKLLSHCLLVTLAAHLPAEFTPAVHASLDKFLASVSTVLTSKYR
# Chain of hemoglobin (Hb) (P68871 2-147 limits assumed): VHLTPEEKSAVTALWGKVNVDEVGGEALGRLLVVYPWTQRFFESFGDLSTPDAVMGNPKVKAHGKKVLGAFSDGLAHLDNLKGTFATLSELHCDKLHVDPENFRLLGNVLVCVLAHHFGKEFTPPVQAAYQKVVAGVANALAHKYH
"oxygen release efficiency of hemoglobin (1.2 mM 2,3-BPG, PO2 of 20 mmHg)","oxygen saturation fraction of hemoglobin (1.2 mM 2,3-BPG, PO2 of 20 mmHg)","oxygen saturation fraction of hemoglobin (Hb) (12 mM 2,3-BPG, fixed oxygen partial pressure of 20 mmHg, 80% where no 2,3-BPG is present)","oxygen release efficiency (12 mM 2,3-BPG, oxygen partial pressure 20 mmHg, 20% without 2,3-BPG)","change of P50 value with 2,3-BPG concentration (FIG. 2, various 2,3-BPG concentrations up to 12.0 mM)","P50 value (approximately 4 mM 2,3-BPG, no phthalide compound)",Structure (SMILES),"effect of phthalide compound together with 2,3-BPG (lowering the oxygen affinity of hemoglobin)"
,,,,,,CCC/C=C1\OC(=O)C2=C1CCC=C2 [Z-ligustilide],synergistic effect
40%,approximately 60%,35%,65%,higher,18.8 mmHg,"O=C(O)C(COP(=O)(O)O)OP(=O)(O)O (centres unmarked) [2,3-BPG, 2,3-bisphosphorglycerate]",
,,,,,,CCC/C=C1\OC(=O)C2=C1CC[C@@H](O)[C@@H]2O [senkyunolide I],synergistic effect
